“Also recorded” adds a separate entry of the source.
Columns and labels:
Assay type in all cases: cell-based, mice
[1] = tested on: MRL/lpr Mφs; test: Lysosome acidification after IgG-IC stimulation, ratiometric flow cytometry (relative phagosomal pH); details: MRL/lpr Mφs/BMMFs stimulated with IgG-ICs; inhibitor added 2 hours prior and left on
Protocol: (§1) FIGS. 6A-6B. […] (6A). BMMφs from B6 and MRL/lpr mice were stimulated with IgG-ICs±TGX-221 (p110β), IC87114 (p110δ), or Torin1 (mTorC1/C2), and ratiometric flow cytometry was used to quantify the relative phagosomal pH. (6B). Cells were pre-treated with drugs (for 2 hr) and given IgG-ICs. IgG-ICs were removed after 2 hr. Cells remained on drug for the duration of the experiment. At 72 hrs, levels of surface bound IgG-ICs were analyzed by flow cytometry. All values are normalized to B6 untreated. n=3-7.
FIGS. 9A-9C. […] (9A). BMMφs (left panel) or splenic CD11b+ myeloid cells from B6 and MRL/lpr (right panel) were stimulated with IgG-ICs±SM-PEG (1, 2) (5 μg/mL) or control SM-PEG […] (5 μg/mL), and ratiometric flow cytometry was used to quantify the relative phagosomal pH. For internal control, cells were treated with concanamycin A (CMA) 2 hrs prior to IgG-ICs treatment (T0+CMA) to inhibit lysosomal pH change. 2-7 mice, >2 experiments. (9B). BMMφs (left panel) or splenic CD11b+ myeloid cells (right panel) were stimulated with SM-PEG (1, 2) or control SM-PEG (2, 1), or left unstimulated for 30 min or 60 min. At each time points, fixed cells were analyzed for surface bound nucleosomes. 2 mice, 2 experiments. (9C). BMMφs were stimulated with IgG-ICs±SM-PEG(1, 2) (5 μg/mL) for 1 hr, then pAKT (Ser/Thr) and pSHIP1 levels were assessed by flow cytometry. Phospho-proteins were normalized to isotype controls and the levels of total protein. 4 mice, 4 experiments.
The acidotropic dye LysoSensor™ Yellow/Blue can be used to quantify the pH or lysosomes using ratiometric imaging. […] For this adaptation, we loaded cells with an acidotropic dye and concurrently analyzed cells by microscopy (with pH standards) and flow cytometry. […]
Cells were incubated (37° C., 5% CO2) for 2 hours prior to the addition of 40 μL of IgG-ICs in R10 media (as above). […] At each time points, LysoSensor™ (2 mg/mL) was added and incubated for 15 min, then, analyzed by flow cytometry. […] Relative pH was quantified by ratioing the MFIs from the emission channels (450/20 nm, 585/42 nm) (normalized to concanamycin A control). […]

[2] = tested on: MRL/lpr Mφs; test: Recycling of IgG-IC flow cytometry (surface bound IgG-ICs); details: pre-treated with drugs 2 hr, surface IgG-ICs at 72 hrs
Protocol: as §1
Cells (0.25×10^6) were rested in R10 media for 1 hr at 37° C. prior to the addition of any reagents. IgG-ICs were added, incubated for given duration, and removed at each time points. […]
BMMφs were incubated (37° C., 5% CO2) with 40 μL Alexa Fluor® 488-labeled IgG-ICs in R10 media (as above). To quantify surface bound ICs at 0 hours, phagocytic uptake was impaired by culturing with IgG-ICs on ice for 2 hours. […] One sample was incubated with an anti-Alexa Fluor® 488 antibody (quenches Alexa Fluor® 488 fluorescence), while the other sample was left in FACS media for 30 min on ice. […] Surface bound IgG-ICs were calculated by subtracting the MFI of the quenched sample (intracellular IgG-ICs) from the MFI of the unquenched sample (total IgG-ICs). […]

[3] = tested on: MRL/lpr BMMφ; test: mTOR localization by confocal imaging; details: MRL/lpr BMMφs; Torin1 250 ng/mL for 2 hrs
Protocol: FIGS. 5A-5B. Localization of mTOR is defective in MRL/lpr BMMφ. (5A-5B). Unstimulated BMMφs cultured±Torin1 (250 ng/mL) for 2 hrs were examined for mTOR localization with CD11b by confocal imaging. Colocalization of mTOR to membrane (CD11b) is quantitated by mander's coefficient (5A). Total cellular mTOR levels were quantitated using ImageJ software (5B); 3 exp, 2-3 mice, 10-29 cells.
BMMφs were cultured with IgG-ICs in R10 media at 37° C. For measuring lipid rafts fluorescently labeled CTx was added to the culture 30 min prior to fixation. For the nuclear stain, hoechst was added 15 min prior to fixation. Mφs were fixed with 2% paraformaldehyde, then incubated at 4° C. for 15 min. Cells were blocked in 2.4G2 for 30 min at 4° C. in FACs media (PBS with 2% FBS, 0.02% NaN3), washed, and stained with primary and corresponding secondary antibodies in permeabilization buffer (PBS with 0.05% Saponin and 0.5% BSA) for 30 min at 4° C. Mφs were imaged in FACs media or resuspended in FluorSave™ and imaged. […] Data were analyzed using ImageJ. Colocalization was measured by calculating the Mander's coefficient (colocalized pixels/total fluorescent pixels) in all the cells imaged.

[4] = tested on: B6 MFs; test: Recycling of IgG-ICs in B6 MFs treated with concanamycin A
Protocol: BMMφs were incubated (37° C., 5% CO2) with 40 μL Alexa Fluor® 488-labeled IgG-ICs in R10 media (as above). To quantify surface bound ICs at 0 hours, phagocytic uptake was impaired by culturing with IgG-ICs on ice for 2 hours. This was sufficient to allow the ICs to bind to the surface of the cell but not be phagocytosed. For all other time points, cells were incubated (37° C., 5% CO2) for 2 hours, then media was replaced to remove all unbound ICs. At indicated time points, cells were blocked in 2.4G2 for 30 min on ice in FACS media, washed, and split into 2 samples. One sample was incubated with an anti-Alexa Fluor® 488 antibody (quenches Alexa Fluor® 488 fluorescence), while the other sample was left in FACS media for 30 min on ice. Both samples were washed and fixed with 2% paraformaldehyde and incubated at 4° C. for 15 min. Surface bound IgG-ICs were calculated by subtracting the MFI of the quenched sample (intracellular IgG-ICs) from the MFI of the unquenched sample (total IgG-ICs). Values were normalized to B6 0 hr.

Q: Which results are given for `Cc1ccccc1-n1c(Cn2cnc3c(N)ncnc32)nc2cccc(C)c2c1=O` [IC87114]?
A: lysosome acidification [1]: restored lysosome acidification to levels comparable to B6; also recorded: restored lysosomal acidification; recycling of IgG-ICs (surface bound IgG-ICs) [2]: prevented the recycling of IgG-ICs

Q: For `Cc1cc(C(C)Nc2ccccc2)c2nc(N3CCOCC3)cc(=O)n2c1` (stereo not shown) [TGX-221], which lysosome acidification [1] is on record?
A: restored lysosome acidification to levels comparable to B6; also recorded: restored lysosomal acidification

Q: And the “recycling of IgG-ICs (surface bound IgG-ICs)” value [2]?
A: prevented the recycling of IgG-ICs

Q: Which results are given for `CCC(=O)N1CCN(c2ccc(-n3c(=O)ccc4cnc5ccc(-c6cnc7ccccc7c6)cc5c43)cc2C(F)(F)F)CC1` [Torin1]?
A: lysosome acidification [1]: restored lysosome acidification to levels comparable to B6; also recorded: restored lysosomal acidification; mTOR localization [3]: restored mTOR to a cytosolic location

Q: With `C/C=C/[C@H]1O[C@@](O)([C@@H](C)[C@H](O)[C@H](C)[C@H]2OC(=O)/C(OC)=C/C(C)=C/[C@@H](C)[C@@H](O)[C@@H](CC)[C@@H](O)[C@H](C)C/C(C)=C/C=C/[C@@H]2OC)C[C@@H](O[C@H]2C[C@@H](O)[C@H](OC(N)=O)[C@@H](C)O2)[C@@H]1C` [concanamycin A] as the compound, how does the “recycling of IgG-ICs” value [4] read?
A: promotes the recycling of IgG-ICs

Reference: patent US20250109216A1, “COMPOSITIONS AND METHODS FOR CROSSLINKING FC RECEPTORS” (The University of North Carolina at Chapel Hill, priority 2016, published 2025)
